Results published in PubChem BioAssay AID248 (DTP/NCI, 2004).
Several values for one entry are separate records, joined by “and”; a condition that tells them apart may be missing. Identical values can stand only once. Toxic doses and inconclusive results are not listed. Cut-off read from the data, not from the text of the source: active = T/C of 150% or more; inactive = T/C below 125%.

Test system: L1210 leukemia ip in BDF1 mice, survival T/C
Assay: NCI In Vivo Anticancer Drug Screen. Data for tumor model L1210 Leukemia (intraperitoneal) in B6D2F1 (BDF1) mice
Settings: endpoint: mean survival time, higher = longer survival
Procedure, shortened: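 In this screen, tumor-bearing mice given compound are compared to those given vehicle, and their survival values are reported as a treated-to-control quotient.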

[1] = dose: 100.0 mg/kg/injection, schedule: Q01DX001 (ip), vehicle: carboxymethylcellulose (CMC)
[2] = dose: 200.0 mg/kg/injection, schedule: Q01DX001 (ip), vehicle: carboxymethylcellulose (CMC)
[3] = dose: 100.0 mg/kg/injection, schedule: Q01DX009 (ip), vehicle: saline with Tween-80
[4] = dose: 200.0 mg/kg/injection, schedule: Q01DX009 (ip), vehicle: saline with Tween-80
[5] = dose: 200.0 mg/kg/injection, schedule: Q04DX003 (ip), vehicle: saline with Tween-80
[6] = dose: 100.0 mg/kg/injection, schedule: Q01DX001 (sc), vehicle: steriod suspending solution
[7] = dose: 200.0 mg/kg/injection, schedule: Q01DX001 (sc), vehicle: steriod suspending solution
[8] = dose: 400.0 mg/kg/injection, schedule: Q01DX001 (sc), vehicle: steriod suspending solution
[9] = dose: 75.0 mg/kg/injection, schedule: Q01DX001 (ip), vehicle: other
[10] = dose: 150.0 mg/kg/injection, schedule: Q01DX001 (ip), vehicle: other
[11] = dose: 100.0 mg/kg/injection, schedule: Q01DX001 (ip), vehicle: Klucel (hydroxypropylcellulose) (HPC)
[12] = dose: 200.0 mg/kg/injection, schedule: Q01DX001 (ip), vehicle: Klucel (hydroxypropylcellulose) (HPC)
[13] = dose: 400.0 mg/kg/injection, schedule: Q01DX001 (ip), vehicle: Klucel (hydroxypropylcellulose) (HPC)
[14] = dose: 50.0 mg/kg/injection, schedule: Q01DX009 (ip), vehicle: saline
[15] = dose: 100.0 mg/kg/injection, schedule: Q01DX009 (ip), vehicle: saline
[16] = dose: 200.0 mg/kg/injection, schedule: Q01DX009 (ip), vehicle: saline

Measured: T/C

O=C(O)c1ccc(O)cn1
inactive: [1] 93 % of control | [2] 95 % of control | dose: 400.0 mg/kg/injection, schedule: Q01DX001 (ip), vehicle: carboxymethylcellulose (CMC) 95 % of control

S=C(NCc1ccccc1)[S][Sn]([S]C(=S)NCc1ccccc1)([c]1ccccc1)[c]1ccccc1
inactive: dose: 5.0 mg/kg/injection, schedule: Q01DX001 (ip), vehicle: steriod suspending solution 98 % of control | dose: 10.0 mg/kg/injection, schedule: Q01DX001 (ip), vehicle: steriod suspending solution 97 % of control | dose: 20.0 mg/kg/injection, schedule: Q01DX001 (ip), vehicle: steriod suspending solution 106 % of control

c1ccc2cc(Sc3ncnc4nc[nH]c34)ccc2c1
inactive: [3] 97 % of control | dose: 100.0 mg/kg/injection, schedule: Q04DX003 (ip), vehicle: saline with Tween-80 105 % of control | [4] 103 % of control | [5] 98 % of control | dose: 400.0 mg/kg/injection, schedule: Q01DX009 (ip), vehicle: saline with Tween-80 97 % of control | dose: 400.0 mg/kg/injection, schedule: Q04DX003 (ip), vehicle: saline with Tween-80 98 % of control

CC12CCC(=O)C=C1CCC1C2C(O)CC2(C)C1CCC2(O)C(=O)CSc1ccc(N(CCCl)CCCl)cc1 (configuration not stated)
inactive: [6] 92 % of control | [7] 100 % of control | [8] 103 % of control

O=[N+]([O-])c1ccccc1CSc1ncnc2nc[nH]c12
inactive: dose: 132.0 mg/kg/injection, schedule: Q04DX003 (ip), vehicle: saline with Tween-80 102 % of control | [5] 100 % of control | dose: 300.0 mg/kg/injection, schedule: Q04DX003 (ip), vehicle: saline with Tween-80 105 % of control

Nc1ccc(SCCC(=O)O)cc1
inactive: [9] 96 % of control and 97 % of control | [10] 105 % of control

COC(=O)c1ccc(C(=O)NCCCc2c(C)nc(N)[nH]c2=O)cc1
inactive: [11] 97 % of control | [12] 92 % of control | [13] 92 % of control

CC(=O)OC12C(=O)OC(=O)C1(C)C1c3ccccc3C2c2ccccc21 (configuration not stated)
inactive: dose: 25.0 mg/kg/injection, schedule: Q01DX009 (ip), vehicle: Klucel (hydroxypropylcellulose) (HPC) 111 % of control | dose: 50.0 mg/kg/injection, schedule: Q01DX009 (ip), vehicle: Klucel (hydroxypropylcellulose) (HPC) 106 % of control | dose: 100.0 mg/kg/injection, schedule: Q01DX009 (ip), vehicle: Klucel (hydroxypropylcellulose) (HPC) 98 % of control

CC(C)(C)OC(=O)N1C2c3ccccc3C1C1C2N=NN1c1ccccc1 (configuration not stated)
inactive: dose: 100.0 mg/kg/injection, schedule: Q01DX001 (ip), vehicle: saline 110 % of control | dose: 200.0 mg/kg/injection, schedule: Q01DX001 (ip), vehicle: saline 95 % of control | dose: 400.0 mg/kg/injection, schedule: Q01DX001 (ip), vehicle: saline 91 % of control

CCCCCCCCCCCC1CCCC2CCCCC12 (configuration not stated)
inactive: dose: 100.0 mg/kg/injection, schedule: Q04DX002 (ip), vehicle: saline with Tween-80 91 % of control | dose: 200.0 mg/kg/injection, schedule: Q04DX002 (ip), vehicle: saline with Tween-80 91 % of control | dose: 400.0 mg/kg/injection, schedule: Q04DX002 (ip), vehicle: saline with Tween-80 100 % of control

C[C@H]1CC2=CC(=O)CC[C@]2(C)[C@H]2CC[C@@]3(C)[C@@H](CC[C@]3(C)O)[C@H]12
inactive: dose: 12.5 mg/kg/injection, schedule: Q01DX009 (sc), vehicle: saline 102 % of control | dose: 25.0 mg/kg/injection, schedule: Q01DX009 (ip), vehicle: saline 97 % of control | dose: 25.0 mg/kg/injection, schedule: Q01DX009 (sc), vehicle: saline 107 % of control | dose: 50.0 mg/kg/injection, schedule: Q01DX001 (sc), vehicle: steriod suspending solution 101 % of control | [14] 100 % of control | dose: 50.0 mg/kg/injection, schedule: Q01DX009 (sc), vehicle: saline 103 % of control | [6] 101 % of control | [15] 94 % of control | dose: 100.0 mg/kg/injection, schedule: Q01DX009 (sc), vehicle: saline 100 % of control | [7] 107 % of control | dose: 200.0 mg/kg/injection, schedule: Q01DX009 (ip), vehicle: acetone 96 % of control | [16] 96 % of control | dose: 200.0 mg/kg/injection, schedule: Q01DX009 (sc), vehicle: acetone 101 % of control | [8] 101 % of control

CCN(C(=O)CCl)C(C)(C)C(SSSC(c1ccc(Cl)cc1)C(C)(C)N(CC)C(=O)CCl)c1ccc(Cl)cc1 (configuration not stated)
inactive: dose: 100.0 mg/kg/injection, schedule: Q04DX003 (ip), vehicle: saline 95 % of control | dose: 200.0 mg/kg/injection, schedule: Q04DX003 (ip), vehicle: saline 91 % of control

CN(C)N=Nc1ccc(S(=O)(=O)N(CCCl)CCCl)cc1
inactive: dose: 12.5 mg/kg/injection, schedule: Q04DX002 (ip), vehicle: Klucel (hydroxypropylcellulose) (HPC) 100 % of control | dose: 25.0 mg/kg/injection, schedule: Q04DX002 (ip), vehicle: Klucel (hydroxypropylcellulose) (HPC) 96 % of control | dose: 50.0 mg/kg/injection, schedule: Q04DX002 (ip), vehicle: Klucel (hydroxypropylcellulose) (HPC) 103 % of control | dose: 100.0 mg/kg/injection, schedule: Q04DX002 (ip), vehicle: Klucel (hydroxypropylcellulose) (HPC) 120 % of control | dose: 200.0 mg/kg/injection, schedule: Q04DX002 (ip), vehicle: Klucel (hydroxypropylcellulose) (HPC) 103 % of control | dose: 400.0 mg/kg/injection, schedule: Q04DX002 (ip), vehicle: Klucel (hydroxypropylcellulose) (HPC) 95 % of control

NNc1ccccc1Cl
inactive: dose: 50.0 mg/kg/injection, schedule: Q01DX001 (ip), vehicle: carboxymethylcellulose (CMC) 108 % of control | [9] 102 % of control | [1] 97 % of control | [10] 93 % of control | [2] 108 % of control

NC(=S=O)c1ccccc1
inactive: dose: 50.0 mg/kg/injection, schedule: Q01DX009 (ip), vehicle: saline with Tween-80 93 % of control | [14] 101 % of control | [3] 97 % of control | [15] 96 % of control | [4] 93 % of control | [16] 104 % of control

N=C(N)c1cccc(OCCCc2ccccc2)c1
inactive: [11] 100 % of control | [12] 97 % of control | [13] 100 % of control

O=[N+]([O-])c1cc(S(=O)(=O)F)ccc1O
inactive: dose: 5.0 mg/kg/injection, schedule: Q01DX001 (ip), vehicle: other 112 % of control | dose: 10.0 mg/kg/injection, schedule: Q01DX001 (ip), vehicle: other 97 % of control | dose: 20.0 mg/kg/injection, schedule: Q01DX001 (ip), vehicle: other 95 % of control | dose: 40.0 mg/kg/injection, schedule: Q01DX001 (ip), vehicle: other 101 % of control | dose: 80.0 mg/kg/injection, schedule: Q01DX001 (ip), vehicle: other 106 % of control

Cc1ccc(C(=O)[O][Hg][CH2]C2COC([CH2][Hg][O]C(=O)c3ccc(C)cc3)CO2)cc1 (configuration not stated)
inactive: dose: 3.12 mg/kg/injection, schedule: Q01DX009 (ip), vehicle: Klucel (hydroxypropylcellulose) (HPC) 93 % of control | dose: 6.25 mg/kg/injection, schedule: Q01DX009 (ip), vehicle: Klucel (hydroxypropylcellulose) (HPC) 93 % of control | dose: 6.25 mg/kg/injection, schedule: Q01DX009 (ip), vehicle: saline with Tween-80 113 % of control | dose: 12.5 mg/kg/injection, schedule: Q01DX009 (ip), vehicle: Klucel (hydroxypropylcellulose) (HPC) 94 % of control | dose: 12.5 mg/kg/injection, schedule: Q01DX009 (ip), vehicle: saline with Tween-80 100 % of control | dose: 25.0 mg/kg/injection, schedule: Q01DX009 (ip), vehicle: saline with Tween-80 105 % of control | dose: 25.0 mg/kg/injection, schedule: Q04DX003 (ip), vehicle: other 92 % of control | dose: 50.0 mg/kg/injection, schedule: Q04DX003 (ip), vehicle: other 90 % of control | dose: 100.0 mg/kg/injection, schedule: Q04DX003 (ip), vehicle: other 95 % of control
